± gives the expanded uncertainty stated by the source.
Conditions: 101.33 kPa, Liquid; for speed of sound: Sing-around technique in a fixed-path interferometer; for mass density: Vibrating tube method

CC(=O)[O-].C[NH2+]CCO [N-methyl-2-hydroxyethylammonium acetate]
speed of sound (308.15 K): 1769.3 ± 2.2 m/s
mass density (308.15 K): 1094.83 ± 2.2 kg/m3
speed of sound (308.4 K): 1768.7 ± 2.2 m/s
mass density (308.4 K): 1094.68 ± 2.2 kg/m3
speed of sound (308.65 K): 1768 ± 2.2 m/s
mass density (308.65 K): 1094.52 ± 2.2 kg/m3
speed of sound (308.9 K): 1767.4 ± 2.2 m/s
mass density (308.9 K): 1094.37 ± 2.2 kg/m3
speed of sound (309.15 K): 1766.8 ± 2.2 m/s
mass density (309.15 K): 1094.22 ± 2.2 kg/m3
speed of sound (309.4 K): 1766.1 ± 2.2 m/s
mass density (309.4 K): 1094.07 ± 2.2 kg/m3
speed of sound (309.65 K): 1765.5 ± 2.2 m/s
mass density (309.65 K): 1093.92 ± 2.2 kg/m3
speed of sound (309.9 K): 1764.8 ± 2.2 m/s
mass density (309.9 K): 1093.77 ± 2.2 kg/m3
speed of sound (310.15 K): 1764.2 ± 2.2 m/s
mass density (310.15 K): 1093.62 ± 2.2 kg/m3
speed of sound (310.4 K): 1763.6 ± 2.2 m/s
mass density (310.4 K): 1093.47 ± 2.2 kg/m3
speed of sound (310.65 K): 1762.9 ± 2.2 m/s
mass density (310.65 K): 1093.31 ± 2.2 kg/m3
speed of sound (310.91 K): 1762.3 ± 2.2 m/s
mass density (310.91 K): 1093.16 ± 2.2 kg/m3
speed of sound (311.16 K): 1761.7 ± 2.2 m/s
mass density (311.16 K): 1093.01 ± 2.2 kg/m3
speed of sound (311.4 K): 1761 ± 2.2 m/s
mass density (311.4 K): 1092.85 ± 2.2 kg/m3
speed of sound (311.65 K): 1760.4 ± 2.2 m/s
mass density (311.65 K): 1092.7 ± 2.2 kg/m3
speed of sound (311.91 K): 1759.7 ± 2.2 m/s
mass density (311.91 K): 1092.55 ± 2.2 kg/m3
speed of sound (312.16 K): 1759.1 ± 2.2 m/s
mass density (312.16 K): 1092.4 ± 2.2 kg/m3
speed of sound (312.41 K): 1758.5 ± 2.2 m/s
mass density (312.41 K): 1092.24 ± 2.2 kg/m3
speed of sound (312.66 K): 1757.8 ± 2.2 m/s
mass density (312.66 K): 1092.09 ± 2.2 kg/m3
speed of sound (312.91 K): 1757.2 ± 2.2 m/s
mass density (312.91 K): 1091.94 ± 2.2 kg/m3
viscosity (313.15 K): 46.16 ± 1.3 mPa·s
speed of sound (313.16 K): 1756.5 ± 2.2 m/s
mass density (313.16 K): 1091.78 ± 2.2 kg/m3
speed of sound (313.4 K): 1755.9 ± 2.2 m/s
mass density (313.4 K): 1091.63 ± 2.2 kg/m3
speed of sound (313.66 K): 1755.2 ± 2.2 m/s
mass density (313.66 K): 1091.48 ± 2.2 kg/m3
speed of sound (313.9 K): 1754.6 ± 2.2 m/s
mass density (313.9 K): 1091.32 ± 2.2 kg/m3
speed of sound (314.15 K): 1753.9 ± 2.2 m/s
mass density (314.15 K): 1091.17 ± 2.2 kg/m3
speed of sound (314.4 K): 1753.3 ± 2.2 m/s
mass density (314.4 K): 1091.02 ± 2.2 kg/m3
speed of sound (314.65 K): 1752.6 ± 2.2 m/s
mass density (314.65 K): 1090.87 ± 2.2 kg/m3
speed of sound (314.9 K): 1752 ± 2.2 m/s
mass density (314.9 K): 1090.71 ± 2.2 kg/m3
speed of sound (315.15 K): 1751.3 ± 2.2 m/s
mass density (315.15 K): 1090.56 ± 2.2 kg/m3
speed of sound (315.41 K): 1750.7 ± 2.2 m/s
mass density (315.41 K): 1090.41 ± 2.2 kg/m3
speed of sound (315.65 K): 1750 ± 2.2 m/s
mass density (315.65 K): 1090.26 ± 2.2 kg/m3
speed of sound (315.91 K): 1749.4 ± 2.2 m/s
mass density (315.91 K): 1090.1 ± 2.2 kg/m3
speed of sound (316.16 K): 1748.7 ± 2.2 m/s
mass density (316.16 K): 1089.95 ± 2.2 kg/m3
speed of sound (316.41 K): 1748.1 ± 2.2 m/s
mass density (316.41 K): 1089.79 ± 2.2 kg/m3
speed of sound (316.66 K): 1747.4 ± 2.2 m/s
mass density (316.66 K): 1089.64 ± 2.2 kg/m3
speed of sound (316.91 K): 1746.8 ± 2.2 m/s
mass density (316.91 K): 1089.49 ± 2.2 kg/m3
speed of sound (317.16 K): 1746.1 ± 2.2 m/s
mass density (317.16 K): 1089.33 ± 2.2 kg/m3
speed of sound (317.4 K): 1745.5 ± 2.2 m/s
mass density (317.4 K): 1089.18 ± 2.2 kg/m3
speed of sound (317.66 K): 1744.8 ± 2.2 m/s
mass density (317.66 K): 1089.02 ± 2.2 kg/m3
speed of sound (317.91 K): 1744.2 ± 2.2 m/s
mass density (317.91 K): 1088.87 ± 2.2 kg/m3
viscosity (318.15 K): 37.28 ± 1.1 mPa·s
speed of sound (318.16 K): 1743.5 ± 2.2 m/s
mass density (318.16 K): 1088.72 ± 2.2 kg/m3
speed of sound (318.41 K): 1742.8 ± 2.2 m/s
mass density (318.41 K): 1088.56 ± 2.2 kg/m3
speed of sound (318.65 K): 1742.2 ± 2.2 m/s
mass density (318.65 K): 1088.41 ± 2.2 kg/m3
speed of sound (318.9 K): 1741.5 ± 2.2 m/s
mass density (318.9 K): 1088.26 ± 2.2 kg/m3
speed of sound (319.16 K): 1740.9 ± 2.2 m/s
mass density (319.16 K): 1088.1 ± 2.2 kg/m3
speed of sound (319.41 K): 1740.2 ± 2.2 m/s
mass density (319.41 K): 1087.94 ± 2.2 kg/m3
speed of sound (319.65 K): 1739.6 ± 2.2 m/s
mass density (319.65 K): 1087.79 ± 2.2 kg/m3
speed of sound (319.91 K): 1738.9 ± 2.2 m/s
mass density (319.91 K): 1087.64 ± 2.2 kg/m3
speed of sound (320.16 K): 1738.2 ± 2.2 m/s
mass density (320.16 K): 1087.48 ± 2.2 kg/m3
speed of sound (320.41 K): 1737.6 ± 2.2 m/s
mass density (320.41 K): 1087.33 ± 2.2 kg/m3
speed of sound (320.65 K): 1736.9 ± 2.2 m/s
mass density (320.65 K): 1087.17 ± 2.2 kg/m3
speed of sound (320.91 K): 1736.3 ± 2.2 m/s
mass density (320.91 K): 1087.02 ± 2.2 kg/m3
speed of sound (321.15 K): 1735.6 ± 2.2 m/s
mass density (321.15 K): 1086.86 ± 2.2 kg/m3
speed of sound (321.41 K): 1735 ± 2.2 m/s
mass density (321.41 K): 1086.71 ± 2.2 kg/m3
speed of sound (321.66 K): 1734.3 ± 2.2 m/s
mass density (321.66 K): 1086.55 ± 2.2 kg/m3
speed of sound (321.9 K): 1733.6 ± 2.2 m/s
mass density (321.9 K): 1086.4 ± 2.2 kg/m3
speed of sound (322.15 K): 1733 ± 2.2 m/s
mass density (322.15 K): 1086.24 ± 2.2 kg/m3
speed of sound (322.41 K): 1732.3 ± 2.2 m/s
mass density (322.41 K): 1086.08 ± 2.2 kg/m3
speed of sound (322.65 K): 1731.7 ± 2.2 m/s
mass density (322.65 K): 1085.93 ± 2.2 kg/m3
speed of sound (322.91 K): 1731 ± 2.2 m/s
mass density (322.91 K): 1085.77 ± 2.2 kg/m3

— the NIST ThermoML archive (doi:10.1021/je900550v)
